Here are results for one molecule from patent US20080247979A1, “Use of a Hydrophobic Zeolite, that Contains and Gives a Slow Release of an Active Element, for Treatment of Skin” (priority 2005, published 2008).

The data set can be described thus: free release of ethanol from loaded hydrophobic zeolite over time, with parallel evaporation of non-adsorbed ethanol. The format is physicochemical. The conditions noted are these: one gram ethanol not adsorbed to any hydrophobic zeolite, reduced to 0,5 grams. The procedure:
After 12 hours, at 29 degrees C., hydrophobic zeolite Y powder has dropped approximately 70% of its ethanol.
Hydrophobic zeolite Y was loaded with 16 weight per cent ethanol and its free release of ethanol over the time at a surrounding temperature off 29 degrees C. was studied. The result appears in FIG. 1. Which also appears from FIG. 1, the hydrophobic zeolite had, after approximately 5 hours, given the half amount of its ethanol, and was still active.
In a parallel experiment evaporation of 95% ethanol, not adsorbed to any hydrophobic zeolite, was measured. One gram of this ethanol had after 8 minutes been reduced through evaporation to 0,5 grams, i e to half the amount. This is a drastic difference compared with ethanol which is adsorbed to hydrophobic zeolite. If the experiment had been executed with 99.5% ethanol instead of 95% it would presumably have been even smaller. Through the hydrophobic zeolite composition the skin is exposed to ethanol vapour during 50 times's longer time as in a normal sponging.
The mentioned hydrophobic zeolite loaded with ethanol gives a vapour that is near 100% ethanol in composition. The ethanol vapour can aggressively attack skin bacteria's in their hydrophobic environment during relatively long time.

As to `CCO` [95% ethanol, ethanol], the “time until reduced through evaporation to half the amount” value was determined as 8 min.
